This is an account of results in article PMC12019622 (World Journal of Experimental Medicine, 2025).

For data set [1], the system named is IOMM-Lee malignant meningioma cell line. The data set can be described thus: Growth inhibition experiment. It counts as cell-based. The settings on record: read-out: IC50 value.
Data set [2] relates to HKBMM malignant meningioma cell line. The experiment in a line: Growth inhibition experiment. It counts as cell-based. Particulars: read-out: IC50 value.
Data set [3] relates to blood-brain barrier (BBB). The settings on record: cited from earlier work.
A short description of data set [4]: Tissue distribution: blood concentration and brain distribution by HPLC. The settings on record: male, C57BL/6, mouse, intraperitoneal, 2 mg/kg. Format: in vivo, C57BL/6 (B6) mice.
Another data set has as its system Malignant meningioma. The settings on record: clinical, cited from earlier work; for partial response (PR) rate: malignant meningioma.

As a reminder, the IC50 is the concentration at which inhibition is half-maximal.

With `COc1cc(C=CC(=O)C=Cc2ccc(O)c(OC)c2)ccc1O` [GO-Y022, 1,5-bis (4-hydroxy-3-methoxyphenyl)-1,4-pentadiene-3-one], the results for the IC50 in data set [1] and in data set [2] were 4.3 µM and 4.5 µM, respectively. Moreover, the “permeability across the blood-brain barrier (BBB)” value in data set [3] is 8.2 ± 1.3 × 10^−6 cm/s.

In data set [4] (brain), `COCOc1cc(/C=C/C(=O)/C=C/c2cc(OCOC)cc(OCOC)c2)cc(OCOC)c1` [GO-Y030, (1E,4E)-1,5-bis [3,5-bis (methoxymethoxy)phenyl] penta-1,4-dien-3-one] showed a concentration at 1 h of 0 ng/g, a concentration at 3 h of 26.8 ng/g and a concentration at 6 h of 23.1 ng/g. In data set [4] (serum), this compound registered a concentration at 1 h of 18 ng/mL, a concentration at 3 h of 46.7 ng/mL and a concentration at 6 h of 58.2 ng/mL.

For the compound `CCN(CC)CCNC(=O)c1c(C)[nH]c(/C=C2\C(=O)Nc3ccc(F)cc32)c1C` [Sunitinib], in the data set on Malignant meningioma (meningioma), the “6-month progression-free survival rate” value is given as 42% and the PR rate is reported as 5.55%.

`COc1cc(/C=C/C(=O)CC(=O)/C=C/c2ccc(O)c(OC)c2)ccc1O` [curcumin, Curcumin, reference compound]: the IC50 in data set [1] was 13.3 µM; in data set [2] it was 20 µM. For the same compound, the “permeability across the blood-brain barrier (BBB)” value in data set [3] is 0.60 ± 0.67 × 10^−6 cm/s.

For the compound `NC(=O)NO` [hydroxyurea], in the data set on Malignant meningioma, the “partial response (PR) rate” value is given as 0%-10%.

As to `CC#C[C@]1(O)CC[C@H]2[C@@H]3CCC4=CC(=O)CCC4=C3[C@@H](c3ccc(N(C)C)cc3)C[C@@]21C` [mifepristone], the “partial response (PR) rate” value in the data set on Malignant meningioma is recorded as 1.4%-30.76%.

Consider `CC/C(=C(\c1ccccc1)c1ccc(OCCN(C)C)cc1)c1ccccc1` [tamoxifen], for which the “partial response (PR) rate” value in the data set with Malignant meningioma is given as 5%-16.66%.
